Where a name gives a salt, the structure may show the parent alone.
Columns and labels:
human S1P1 (EDG-1) [1] = molecular target: T1, human S1P1 (EDG-1) (Homo sapiens, UniProt P21453); assay: S1P receptor agonist activity by monitoring intracellular calcium concentration (S1P1); assay type: cell-based; conditions: for EC50: CHO cells overexpressing human S1P1 (EDG-1) gene, intracellular calcium increase, S1P signal = 100% activity
Method: (§1) Chinese hamster ovary (CHO) cells in which each of a human S1P1 (EDG-1) gene or a human S1P5 (EDG-8) gene was overexpressed were cultured in Ham's F-12 medium containing 10% FBS (fetal bovine serum), penicillin/streptomycin, and geneticin (0.25 mg/mL). The culture medium was replaced one day before performing a calcium assay and on the day of the assay. Four hours after the culture medium replacement, the culture medium was removed, and washing was performed once with phosphate-buffered saline. After the cells were detached by adding 0.05% trypsin EDTA, the cells were recovered by adding a culture medium. The recovered cell suspension was centrifuged to remove the supernatant, and the cells were suspended in phosphate-buffered saline, and the cell number was counted. The cells were suspended in a Hanks solution containing Calcium 6 Assay Reagent (manufactured by Molecular Devices, LLC), 20 mM HEPES, and 2.5 mM probenecid at a cell density of 1.1×10^6 cells/mL, and the suspension was incubated at 37° C. for about 1 hour. Thereafter, the supernatant was removed by centrifugation, and the cells were suspended in a Hanks solution containing 20 mM HEPES, 2.5 mM probenecid, and 0.1% BSA at a cell density of 2.2×10^6 cells/mL. The suspension was inoculated in a 96-well plate at 80 μL/well. The plate was set on a fluorescent drug screening system (FDSS 6000), and the compound and S1P were sequentially added thereto, and an increase in intracellular calcium concentration between before and after the addition was measured at an excitation wavelength of 480 nm and a fluorescence wavelength of 540 nm. The increase in intracellular calcium concentration was evaluated by the signal intensity at the fluorescence wavelength, and the agonist activity of each compound was calculated by assuming the signal intensity when S1P was added instead of the compound to be 100% activity.

human S1P5 (EDG-8) = human S1P5 (EDG-8) (Homo sapiens, UniProt Q9H228); assay: S1P receptor agonist activity by monitoring intracellular calcium concentration (S1P5); assay type: cell-based; conditions: for EC50: CHO cells overexpressing human S1P5 (EDG-8) gene, intracellular calcium increase, S1P signal = 100% activity; for balance of S1P5 receptor agonist activity against S1P1 receptor agonist activity (in words): comparison of calcium assay agonist activities at S1P1 and S1P5
Method: as §1

human S1P1 (EDG-1) [2] = molecular target: T1, human S1P1 (EDG-1); assay: Inhibition of binding of [33P]-S1P to S1P1, CHO membrane fraction; conditions: membrane fraction of CHO cells overexpressing human S1P1; room temperature 60 minutes; read-out: inhibitory activity (IC50 value) for binding of [33P]-S1P to S1P1
Method: (§2) A reaction was carried out in a 96-well microplate by using a membrane fraction of Chinese hamster ovary (CHO) cells each of which was made to overexpress human S1P1 (EDG-1) gene or human S1P5 gene respectively, in an amount of the membrane fraction of 60 μg protein/mL. To each of the well, 100 μL of a vehicle (DMSO) solution or a compound solution at a two-fold concentration each diluted with Binding Buffer (50 mmol/L Tris pH 7.5, 5 mmol/L MgCl2, 0.5% BSA, Complete EDTA free (1 tablet/50 mL)) and 50 μL of 0.16 nmol/L [^33P]-S1P (manufactured by American Radiolabeled Chemicals, Inc.) diluted with Binding Buffer were added, and thereafter, the membrane fraction solution (50 μL) was added thereto, and a reacted was allowed to proceed at room temperature for 60 minutes. After the reaction, suction filtration was carried out by using a 96-well Unifilter, followed by washing with a washing buffer (50 mmol/L Tris pH 7.5, 0.5% BSA) ([…]), and then dried at 50 to 60° C. for 30 to 60 minutes. MicroScint (trade name) 20 (50 μL/well) was added thereto, and the plate was covered with TopSeal-A, and then a radioactivity was measured with TopCount (manufactured by PerkinElmer Co., Ltd.)
(§3) The compound concentration at which 50% of the specific binding of [^33P]-S1P to human S1P1 and human S1P5 was replaced (IC50 value) was used as an evaluation item. […]

human S1P5 = molecular target: T2, human S1P5 (Homo sapiens, UniProt Q9H228); assay: Inhibition of binding of [33P]-S1P to S1P5, CHO membrane fraction; conditions: membrane fraction of CHO cells overexpressing human S1P5; room temperature 60 minutes; read-out: inhibitory activity (IC50 value) for binding of [33P]-S1P to S1P5
T2 construct: expressed in transfected cells; host or cells: membrane fraction of Chinese hamster ovary (CHO) cells
Method: as §2, §3

T1 sequence (P21453 whole entry): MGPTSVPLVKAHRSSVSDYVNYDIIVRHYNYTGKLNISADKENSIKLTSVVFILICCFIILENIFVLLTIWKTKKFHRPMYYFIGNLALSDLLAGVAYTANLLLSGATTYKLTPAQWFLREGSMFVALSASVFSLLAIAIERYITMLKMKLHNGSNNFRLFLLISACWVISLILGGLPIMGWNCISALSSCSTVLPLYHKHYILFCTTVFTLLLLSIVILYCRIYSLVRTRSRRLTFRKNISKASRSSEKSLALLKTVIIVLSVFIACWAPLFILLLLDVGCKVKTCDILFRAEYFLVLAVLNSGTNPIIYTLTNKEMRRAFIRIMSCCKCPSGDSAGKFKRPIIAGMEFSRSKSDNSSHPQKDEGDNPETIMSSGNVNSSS
human S1P5 (EDG-8), sequence (Q9H228 whole entry): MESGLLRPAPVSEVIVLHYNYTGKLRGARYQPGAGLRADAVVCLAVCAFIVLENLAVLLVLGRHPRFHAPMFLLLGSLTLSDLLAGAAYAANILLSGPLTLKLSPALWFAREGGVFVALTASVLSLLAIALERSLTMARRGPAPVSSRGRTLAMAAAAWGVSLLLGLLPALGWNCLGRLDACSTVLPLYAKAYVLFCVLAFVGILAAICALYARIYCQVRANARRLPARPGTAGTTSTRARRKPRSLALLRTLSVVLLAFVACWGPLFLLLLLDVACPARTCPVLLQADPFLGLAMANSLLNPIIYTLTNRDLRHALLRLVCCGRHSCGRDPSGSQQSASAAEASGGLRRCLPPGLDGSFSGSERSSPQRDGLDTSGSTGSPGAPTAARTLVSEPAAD
T2 sequence (Q9H228 whole entry): as above

Row | SMILES | EC50 (human S1P1 (EDG-1) [1]) [nM] | EC50 (human S1P5 (EDG-8)) [nM] | also measured
1 | CCCCCCCCOc1ccc2c(c1)CCC(CN1CC(C(=O)O)C1)=C2C.Cl [Comparative Compound A, 1-{[1-methyl-6-(octyloxy)-3,4-dihydro-2-naphthalenyl]methyl}-3-azetidinecarboxylic acid hydrochloride, reference compound] | < 3 | 3 | balance of S1P5 receptor agonist activity against S1P1 receptor agonist activity (in words) (human S1P5 (EDG-8)): S1P1 receptor agonist activity was stronger than the S1P5 receptor agonist activity
2 | CCCc1ccc(COc2ccc3c(c2)CCC(CN2CC(C(=O)O)C2)=C3C)c(OC)c1 [Comparative Compound B, 1-({6-[(2-methoxy-4-propylbenzyl)oxy]-1-methyl-3,4-dihydro-2-naphthalenyl}methyl)-3-azetidinecarboxylic acid, reference compound] | 0.2 | 2 | balance of S1P5 receptor agonist activity against S1P1 receptor agonist activity (in words) (human S1P5 (EDG-8)): S1P1 receptor agonist activity was stronger than the S1P5 receptor agonist activity
3 | CC1=C(CNCCC(=O)O)CCc2cc(OCCCC3CCCCC3)ccc21 [Comparative Compound C, 3-({[6-(3-cyclohexylpropoxy)-1-methyl-3,4-dihydro-2-naphthalenyl]methyl}amino)propanoic acid hydrochloride] | – | – | IC50 (human S1P1 (EDG-1) [2]): 1 nM; IC50 (human S1P5): 8.5 nM
4 | C[C@H]1Cc2cc(OCCCC(F)(F)F)ccc2C=C1CN1CC(C(=O)O)C1 [Example 15 (34), 1-[[(3S)-3-methyl-6-(4,4,4-trifluorobutoxy)-3,4-dihydronaphthalen-2-yl]methyl]azetidine-3-carboxylic acid] | > 3000 | 20 | –
5 | [2H]C([2H])([2H])C([2H])([2H])C([2H])([2H])C([2H])([2H])Oc1ccc2c(c1)C[C@H](C)C(CN1CC(C(=O)O)C1)=C2 [Example 15 (70), 1-[[(3S)-3-methyl-6-(1,1,2,2,3,3,4,4,4-nonadeuteriobutoxy)-3,4-dihydronaphthalen-2-yl]methyl]azetidine-3-carboxylic acid] | > 3000 | 12 | –
6 | C[C@H]1Cc2cc(OCCCC(F)(F)F)ccc2C=C1CN1CC[C@@H](C(=O)O)C1 [Example 15 (72), (3R)-1-[[(3S)-3-methyl-6-(4,4,4-trifluorobutoxy)-3,4-dihydronaphthalen-2-yl]methyl]pyrrolidine-3-carboxylic acid] | > 3000 | 22 | –
7 | CCCCCOc1ccc2c(c1)C[C@H](C)C(CN1CC(C(=O)O)C1)=C2 [Example 15, 1-[((3S)-3-methyl-6-pentoxy-3,4-dihydronaphthalen-2-yl)methyl]azetidine-3-carboxylic acid] | > 3000 | 3 | –
8 | CC(N[C@H]1C[C@@H](C(=O)O)C1)C1=Cc2ccc(OCCCC(F)(F)F)cc2C[C@@H]1C (stereo partly drawn) [Example 47 (2), cis-3-({1-[(3S)-3-methyl-6-(4,4,4-trifluorobutoxy)-3,4-dihydro-2-naphthalenyl]ethyl}amino)cyclobutanecarboxylic acid] | > 30000 | 1100 | –

Continued, in another order:

Row | EC50 (human S1P1 (EDG-1) [1]) [nM] | EC50 (human S1P5 (EDG-8)) [nM] | SMILES | also measured
9 | > 10000 | > 10000 | COc1ccc2c(c1)C[C@H](C)C(CN1CC(F)(C(=O)O)C1)=C2 [Comparative Example, (S)-3-fluoro-1-[(6-methoxy-3-methyl-3,4-dihydronaphthalen-2-yl)methyl]azetidine-3-carboxylic acid, reference compound] | S1P1 receptor agonist activity (in words) (human S1P1 (EDG-1) [1]; calcium assay, CHO cells overexpressing human S1P1): did not have; S1P5 receptor agonist activity (in words) (human S1P5 (EDG-8); calcium assay, CHO cells overexpressing human S1P5): did not have
10 | > 3000 | 15 | C[C@H]1Cc2cc(OCCC(F)=C(F)F)ccc2C=C1CN1CC(F)(C(=O)O)C1 [Example 15 (52), 3-fluoro-1-[[(3S)-3-methyl-6-(3,4,4-trifluorobut-3-enoxy)-3,4-dihydronaphthalen-2-yl]methyl]azetidine-3-carboxylic acid] | –
11 | > 30000 | 9 | C[C@H]1Cc2cc(OC/C=C/C(F)(F)F)ccc2C=C1CN1CC(F)(C(=O)O)C1 [Example 15 (82), 3-fluoro-1-[[(3S)-3-methyl-6-[(E)-4,4,4-trifluorobut-2-enoxy]-3,4-dihydronaphthalen-2-yl]methyl]azetidine-3-carboxylic acid] | –
12 | > 30000 | 26 | C[C@H]1Cc2cc(OCCC(F)(F)F)ccc2C=C1CN1CC(F)(C(=O)O)C1 [Example 15 (86), 3-fluoro-1-{[(3S)-3-methyl-6-(3,3,3-trifluoropropoxy)-3,4-dihydro-2-naphthalenyl]methyl}-3-azetidinecarboxylic acid] | –
13 | > 30000 | 98 | CCCOCc1ccc2c(c1)C[C@H](C)C(CN1CC(C(=O)O)C1)=C2 [Example 57 (2), 1-{[(3S)-3-methyl-6-(propoxymethyl)-3,4-dihydro-2-naphthalenyl]methyl}-3-azetidinecarboxylic acid] | –
